Measured values published in patent publication US9096627B2, “Hydroxamic acid derivatives” (Purdue Pharmaceutical Products L.P., priority 2009, dated 2015).
pIC50: −log10 of the molar value.

Key:
HDAC-2 = HDAC-2 (Homo sapiens (Human), UniProt Q92769); experiment: biochemical; assay type: biochemical
Experimental: (§1) Hydroxamic acid is a well know metal-chelating agent, especially for Zn atom. […] Many of these metalloenzymes are well known important disease target, such as HDAC and MMP. […] The following protocol is used to assay the compounds of the invention against the HDAC enzymes.
(§2) The enzyme stock solution is 4 μg/mL in buffer. The compounds are pre-incubated (2 μl in DMSO diluted to 13 μl in buffer for transfer to assay plate) with enzyme (20 μl of 4 μg/ml) for 10 minutes at room temperature (35 μl pre-incubation volume). The mixture is pre-incubated for 5 minutes at room temperature. The reaction is started by bringing the temperature to 37° C. and adding […] substrate. Total reaction volume is 50 μl. […] Such assays, carried out with a range of doses of test compounds, allow the determination of an approximate IC50 value.

HDAC-1 = HDAC-1 (Homo sapiens (Human), UniProt Q13547); experiment: Inhibition of histone deacetylase enzymatic activity (Fluor-de-Lys); assay type: biochemical
HDAC-1, sequence (Q13547 whole entry, species assumed): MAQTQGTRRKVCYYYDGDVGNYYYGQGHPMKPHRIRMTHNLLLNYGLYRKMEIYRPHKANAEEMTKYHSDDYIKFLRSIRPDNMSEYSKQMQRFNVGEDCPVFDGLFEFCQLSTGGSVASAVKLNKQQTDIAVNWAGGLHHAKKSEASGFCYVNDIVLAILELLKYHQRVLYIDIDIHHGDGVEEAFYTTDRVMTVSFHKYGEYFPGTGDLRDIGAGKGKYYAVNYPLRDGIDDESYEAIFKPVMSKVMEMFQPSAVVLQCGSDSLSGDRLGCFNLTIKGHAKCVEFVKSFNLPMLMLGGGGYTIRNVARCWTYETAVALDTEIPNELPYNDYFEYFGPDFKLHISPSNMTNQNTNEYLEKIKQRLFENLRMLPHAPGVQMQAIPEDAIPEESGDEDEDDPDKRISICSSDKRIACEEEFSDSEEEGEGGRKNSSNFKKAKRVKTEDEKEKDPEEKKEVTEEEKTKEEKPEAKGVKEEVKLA
Experimental: as §1, §2

HDAC-10 = HDAC-10 (Homo sapiens (Human), UniProt Q969S8); experiment: as above; assay type: biochemical
HDAC-10, sequence (Q969S8 whole entry, species assumed): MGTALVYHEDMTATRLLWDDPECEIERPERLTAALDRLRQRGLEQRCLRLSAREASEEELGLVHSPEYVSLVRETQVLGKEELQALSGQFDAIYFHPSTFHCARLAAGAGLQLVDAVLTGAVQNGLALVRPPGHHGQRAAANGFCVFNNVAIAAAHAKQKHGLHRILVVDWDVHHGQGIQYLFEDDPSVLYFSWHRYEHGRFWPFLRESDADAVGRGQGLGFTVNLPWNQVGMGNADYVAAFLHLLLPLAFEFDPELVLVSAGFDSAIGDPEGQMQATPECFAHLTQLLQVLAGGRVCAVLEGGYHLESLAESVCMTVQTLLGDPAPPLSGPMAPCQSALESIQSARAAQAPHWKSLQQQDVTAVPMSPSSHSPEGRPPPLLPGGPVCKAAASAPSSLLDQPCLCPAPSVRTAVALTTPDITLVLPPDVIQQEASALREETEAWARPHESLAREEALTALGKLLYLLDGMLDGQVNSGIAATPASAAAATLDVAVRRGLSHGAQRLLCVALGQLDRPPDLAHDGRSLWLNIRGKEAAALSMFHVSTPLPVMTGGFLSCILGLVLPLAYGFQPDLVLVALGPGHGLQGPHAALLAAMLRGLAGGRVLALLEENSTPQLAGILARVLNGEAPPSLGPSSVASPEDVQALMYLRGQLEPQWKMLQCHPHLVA
Experimental: as §1, §2

HDAC-3 = HDAC-3 (Homo sapiens (Human), UniProt O15379); experiment: as above; assay type: biochemical
HDAC-3, sequence (O15379 whole entry, looked up, species assumed): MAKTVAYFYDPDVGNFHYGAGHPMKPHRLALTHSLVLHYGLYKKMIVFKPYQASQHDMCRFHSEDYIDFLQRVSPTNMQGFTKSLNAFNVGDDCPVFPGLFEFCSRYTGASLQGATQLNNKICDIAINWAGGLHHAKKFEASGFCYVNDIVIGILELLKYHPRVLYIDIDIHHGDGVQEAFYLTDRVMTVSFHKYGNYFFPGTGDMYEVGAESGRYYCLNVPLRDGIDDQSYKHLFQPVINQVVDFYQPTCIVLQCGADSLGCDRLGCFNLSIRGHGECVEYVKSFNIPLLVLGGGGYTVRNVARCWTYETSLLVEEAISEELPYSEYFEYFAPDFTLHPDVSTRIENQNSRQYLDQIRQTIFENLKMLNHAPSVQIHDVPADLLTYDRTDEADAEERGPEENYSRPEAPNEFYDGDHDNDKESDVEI
HDAC-3, sequence (Q9Y618 whole entry partner, looked up, species assumed): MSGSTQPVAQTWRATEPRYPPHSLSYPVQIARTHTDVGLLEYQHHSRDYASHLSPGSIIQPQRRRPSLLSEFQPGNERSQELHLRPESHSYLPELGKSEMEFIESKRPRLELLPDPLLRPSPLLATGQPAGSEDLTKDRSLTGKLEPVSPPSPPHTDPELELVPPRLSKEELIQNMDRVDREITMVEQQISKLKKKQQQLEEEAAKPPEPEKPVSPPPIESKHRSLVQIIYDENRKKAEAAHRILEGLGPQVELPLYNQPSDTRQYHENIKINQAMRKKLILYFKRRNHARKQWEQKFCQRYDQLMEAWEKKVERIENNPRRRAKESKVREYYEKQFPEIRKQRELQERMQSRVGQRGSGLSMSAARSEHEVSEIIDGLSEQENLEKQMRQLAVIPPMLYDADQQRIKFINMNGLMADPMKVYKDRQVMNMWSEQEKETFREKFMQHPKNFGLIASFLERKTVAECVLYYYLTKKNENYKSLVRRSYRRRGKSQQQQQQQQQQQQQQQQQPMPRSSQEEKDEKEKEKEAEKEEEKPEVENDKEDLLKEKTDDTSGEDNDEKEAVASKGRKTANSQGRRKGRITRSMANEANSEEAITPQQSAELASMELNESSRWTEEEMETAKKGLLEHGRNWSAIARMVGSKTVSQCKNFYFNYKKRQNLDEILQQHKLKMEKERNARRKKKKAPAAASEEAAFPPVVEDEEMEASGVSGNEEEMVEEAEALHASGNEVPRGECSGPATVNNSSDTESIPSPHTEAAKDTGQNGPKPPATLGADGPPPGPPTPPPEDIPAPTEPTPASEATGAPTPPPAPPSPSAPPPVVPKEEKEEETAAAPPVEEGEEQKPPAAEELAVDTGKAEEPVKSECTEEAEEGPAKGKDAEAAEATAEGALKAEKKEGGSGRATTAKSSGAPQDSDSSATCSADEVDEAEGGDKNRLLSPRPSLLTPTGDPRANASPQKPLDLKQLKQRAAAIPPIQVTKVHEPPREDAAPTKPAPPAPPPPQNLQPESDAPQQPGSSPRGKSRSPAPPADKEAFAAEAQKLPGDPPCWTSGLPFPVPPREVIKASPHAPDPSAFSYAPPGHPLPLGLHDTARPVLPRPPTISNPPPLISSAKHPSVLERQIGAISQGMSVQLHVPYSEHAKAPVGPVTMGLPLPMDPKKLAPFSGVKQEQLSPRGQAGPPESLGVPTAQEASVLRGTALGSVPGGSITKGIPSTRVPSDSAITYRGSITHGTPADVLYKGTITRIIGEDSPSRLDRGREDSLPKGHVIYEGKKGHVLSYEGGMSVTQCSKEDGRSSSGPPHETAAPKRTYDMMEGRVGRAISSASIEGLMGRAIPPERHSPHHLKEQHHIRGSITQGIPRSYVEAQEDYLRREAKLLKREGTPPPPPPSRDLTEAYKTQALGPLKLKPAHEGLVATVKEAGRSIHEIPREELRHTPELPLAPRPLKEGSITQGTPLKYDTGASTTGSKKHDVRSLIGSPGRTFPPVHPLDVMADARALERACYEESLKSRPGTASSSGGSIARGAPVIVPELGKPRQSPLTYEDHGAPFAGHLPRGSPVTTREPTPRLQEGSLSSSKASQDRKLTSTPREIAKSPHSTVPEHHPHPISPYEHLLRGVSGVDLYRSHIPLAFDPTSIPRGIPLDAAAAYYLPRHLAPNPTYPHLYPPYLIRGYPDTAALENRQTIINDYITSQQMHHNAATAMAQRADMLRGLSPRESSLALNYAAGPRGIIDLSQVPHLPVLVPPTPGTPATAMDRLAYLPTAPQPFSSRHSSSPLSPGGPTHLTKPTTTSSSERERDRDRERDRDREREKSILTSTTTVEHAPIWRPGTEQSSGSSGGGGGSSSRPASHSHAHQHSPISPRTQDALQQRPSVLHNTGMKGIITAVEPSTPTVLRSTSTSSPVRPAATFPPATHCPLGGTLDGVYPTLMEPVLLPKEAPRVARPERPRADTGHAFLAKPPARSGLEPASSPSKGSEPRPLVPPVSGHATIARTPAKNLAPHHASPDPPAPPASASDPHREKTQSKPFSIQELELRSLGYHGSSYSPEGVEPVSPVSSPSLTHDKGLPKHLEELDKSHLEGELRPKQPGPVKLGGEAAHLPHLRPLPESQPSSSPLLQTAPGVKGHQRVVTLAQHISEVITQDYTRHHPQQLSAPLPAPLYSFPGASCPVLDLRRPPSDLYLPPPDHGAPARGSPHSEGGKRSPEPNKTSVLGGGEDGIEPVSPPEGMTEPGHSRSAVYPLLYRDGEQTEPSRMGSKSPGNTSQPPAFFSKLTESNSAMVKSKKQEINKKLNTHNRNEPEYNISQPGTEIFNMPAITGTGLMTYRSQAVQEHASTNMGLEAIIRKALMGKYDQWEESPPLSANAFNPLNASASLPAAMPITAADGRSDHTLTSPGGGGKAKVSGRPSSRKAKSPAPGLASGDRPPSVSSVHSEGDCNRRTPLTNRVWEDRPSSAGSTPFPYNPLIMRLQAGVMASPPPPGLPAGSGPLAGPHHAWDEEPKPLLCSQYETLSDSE
Experimental: as §1, §2

HDAC-6 = HDAC-6 (Homo sapiens (Human), UniProt Q9UBN7); experiment: as above; assay type: biochemical
Experimental: as §1, §2

HDAC-8 = HDAC-8 (Homo sapiens (Human), UniProt Q9BY41); experiment: as above; assay type: biochemical
HDAC-8, sequence (Q9BY41 whole entry, species assumed): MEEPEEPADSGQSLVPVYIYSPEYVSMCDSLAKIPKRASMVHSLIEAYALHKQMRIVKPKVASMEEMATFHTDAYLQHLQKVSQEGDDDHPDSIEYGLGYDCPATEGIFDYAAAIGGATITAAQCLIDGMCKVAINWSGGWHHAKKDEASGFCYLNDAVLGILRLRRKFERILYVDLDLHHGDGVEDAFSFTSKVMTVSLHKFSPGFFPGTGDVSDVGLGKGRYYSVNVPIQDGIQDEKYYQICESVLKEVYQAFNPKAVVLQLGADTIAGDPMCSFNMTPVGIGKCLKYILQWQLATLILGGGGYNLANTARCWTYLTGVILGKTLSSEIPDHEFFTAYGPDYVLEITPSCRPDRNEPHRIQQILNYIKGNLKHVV
Experimental: as §1, §2

MM1R = experiment: In vitro anti-proliferation assay (ATPlite luminescence); assay type: cell-based; settings: MM.1R, 72 hours, 5% FBS, read-out: IC50 cell anti-proliferative assay MM1R
Experimental: (§3) Cell antiproliferation was assayed by PerkinElmer ATPlite™ Luminescence Assay System. The cancer cell lines were plated at 10 k cells per well in Costar 96-well plates with different concentration of compounds for 72 hours with 5% FBS. After that, one lyophilized substrate solution vial was reconstituted by adding 5 mL of substrate buffer solution and was agitated gently until the solution is homogeneous. 50 μL of mammalian cell lysis solution was added to 100 μL of cell suspension per well of a microplate and the plate was shaken for five minutes in an orbital shaker at 700 rpm. This procedure will lyses the cells and stabilizes the ATP. Next, 50 μL substrate solution was added to the wells and microplate was shaken for five minutes in an orbital shaker at 700 rpm. Finally the luminescence was measured by a PerkinElmer TopCount® Microplate Scintillation Counter. Such assays, carried out with a range of doses of test compounds, allow the determination of an approximate IC50 value for the in vitro cell antiproliferation assay of cancer cell lines.

MM1S = experiment: as above; assay type: cell-based; settings: Homo sapiens, MM1.S, 72 hours, 5% FBS, read-out: IC50 cell anti-proliferative assay MM1S
Experimental: as §3

RPMI8226 = experiment: as above; assay type: cell-based; settings: Homo sapiens, RPMI-8226; RPMI8226, 72 hours, 5% FBS; read-out: IC50 cell anti-proliferative assay RPMI8226
Experimental: as §3

HDAC-2, sequence (Q92769 whole entry, species assumed): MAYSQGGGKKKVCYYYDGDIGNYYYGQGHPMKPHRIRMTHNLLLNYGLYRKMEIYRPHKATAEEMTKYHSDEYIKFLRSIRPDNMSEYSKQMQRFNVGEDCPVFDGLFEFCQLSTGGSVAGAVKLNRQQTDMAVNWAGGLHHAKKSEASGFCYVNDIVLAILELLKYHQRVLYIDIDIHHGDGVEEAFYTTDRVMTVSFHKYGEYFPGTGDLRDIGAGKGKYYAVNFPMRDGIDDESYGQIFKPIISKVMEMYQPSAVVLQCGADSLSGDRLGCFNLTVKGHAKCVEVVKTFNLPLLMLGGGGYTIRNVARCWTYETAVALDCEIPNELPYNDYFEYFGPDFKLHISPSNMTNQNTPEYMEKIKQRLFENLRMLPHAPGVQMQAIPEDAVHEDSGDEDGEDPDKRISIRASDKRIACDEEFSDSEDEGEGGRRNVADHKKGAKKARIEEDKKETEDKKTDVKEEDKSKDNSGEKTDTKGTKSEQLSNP

Structure (SMILES) | HDAC IC50, HDAC-2 (result in words) (HDAC-2) | HDAC IC50, HDAC-1 (result in words) (HDAC-1; Bendamustine, unit not given) | HDAC IC50, HDAC-10 (result in words) (HDAC-10; HDAC-10, Bendamustine, unit not given) | HDAC IC50, HDAC-3 (result in words) (HDAC-3; Bendamustine, unit not given) | HDAC IC50, HDAC-6 (result in words) (HDAC-6; HDAC-6, Bendamustine, unit not given) | HDAC IC50, HDAC-8 (result in words) (HDAC-8; HDAC-8, Bendamustine, unit not given) | pIC50 (MM1R) | pIC50 (MM1S) | pIC50 (RPMI8226) | pIC50 (HDAC-2) | pIC50 (HDAC-1) | pIC50 (HDAC-10) | pIC50 (HDAC-3) | pIC50 (HDAC-6) | pIC50 (HDAC-8)
Cn1c(CCCC(=O)O)nc2cc(N(CCCl)CCCl)ccc21 [Bendamustine] | No activity | No activity | No activity | No activity | No activity | No activity | 4.00 | 3.92 | 3.40 | – | – | – | – | – | –
Cn1c(CCCCCCC(=O)NO)nc2cc(N(CCCl)CCCl)ccc21 [CY190602] | – | – | – | – | – | – | 5.58 | 5.80 | 5.38 | 8.05 | 7.77 | 7.14 | 7.60 | 8.22 | 6.97
